Patent US20220169654A1, “New Organic Compounds” (Servier Pharmaceuticals LLC, priority 2020, published 2022)

How the values were obtained:
MAT2A homodimer = target: T1, MAT2A homodimer (Homo sapiens, UniProt P31153); test: MAT2A inhibition (biochemical, liberated phosphate, PiColorLock Gold); settings: recombinant MAT2A homodimer; IC50 bin with Max Inh.; read-out: Enzyme Inhibition Bin
T1 construct: inferred from Ni sepharose purification with imidazole elution; made in house; host or cells: Sf9 insect cells, baculovirus (Bac to Bac, pFASTBAC1)
T1 sequence (P31153 whole entry): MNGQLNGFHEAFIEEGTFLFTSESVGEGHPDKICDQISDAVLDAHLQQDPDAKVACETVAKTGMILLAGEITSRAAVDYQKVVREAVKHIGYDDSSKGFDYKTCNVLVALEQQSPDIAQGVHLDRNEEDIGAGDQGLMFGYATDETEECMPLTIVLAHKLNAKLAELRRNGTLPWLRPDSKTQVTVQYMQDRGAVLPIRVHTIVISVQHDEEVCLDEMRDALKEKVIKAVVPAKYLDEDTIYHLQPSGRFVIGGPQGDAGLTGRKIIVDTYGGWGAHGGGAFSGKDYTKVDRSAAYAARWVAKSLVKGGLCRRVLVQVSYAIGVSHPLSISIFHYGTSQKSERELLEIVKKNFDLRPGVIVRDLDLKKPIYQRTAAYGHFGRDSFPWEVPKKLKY
Method in brief: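 Baculovirus/Sf9-expressed, Ni-purified MAT2A (4 μg/mL) preincubated with compound 60 min at 25 °C in Tris pH 8.0/KCl/MgCl2 buffer. Reaction started with 500 μM ATP and 400 μM L-methionine (substrate-mix concentrations), run 60 min at 25 °C. Phosphate measured colorimetrically against a phosphate standard curve to give IC50.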

HCT116 MTAP−/− = test: Inhibition of cellular proliferation, 4 days, Cell Titer Glo, HCT116 MTAP−/−; format: cell-based; settings: Homo sapiens, HCT-116, 96 h, IC50 bin with Max Inh., read-out: 4 Day Relative Growth Inhibition (MTAP −/−)
Method in brief: (§1)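 Isogenic HCT116 pair differing only in MTAP status, plated 24 h before treatment with 10-point 3-fold dilutions; 4 days at 37° C./5% CO2. Cell Titer Glo luminescence, blank-subtracted and normalised to 0.2% DMSO control, gives percentage proliferation vs log molar concentration for IC50.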

[1] = tested on: SAM in HCT116 human colon carcinoma cell line with MTAP gene deleted (MTAP −/−); test: Cellular assay of target engagement (SAM), LC-MS/MS, 72 hrs; format: cell-based; settings: HCT-116, IC50 bin with Max Inh., read-out: Cell 72 h SAM Inhibition (MTAP −/−)
Method in brief: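 MTAP-deleted HCT116 cells plated 24 h, then given 10-point 3-fold dilutions for 72 hrs at 37° C. Intracellular SAM extracted in cold 80% methanol with 1M acetic acid and d3-SAM standard, quantified by LC-MS/MS (MRM m/z 399.2→250.1); IC50 derived.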

HCT116 MTAP+/+ = test: Inhibition of cellular proliferation, 4 days, Cell Titer Glo, HCT116 MTAP+/+; format: cell-based; settings: Homo sapiens, HCT-116, 96 h, IC50 bin with Max Inh., read-out: 4 Day Relative Growth Inhibition (MTAP +/+)
Method in brief: as §1

Row | SMILES | IC50 (MAT2A homodimer) | IC50 (HCT116 MTAP−/−) | IC50 [1] | IC50 (HCT116 MTAP+/+)
1 | [2H]C([2H])([2H])Oc1ccc(-c2c(=O)n(-c3ccc4nn(C)cc4c3)nc3c(C#N)cn(CC4CC4)c23)cc1 [Example 161, 5-(cyclopropylmethyl)-4-(4-(methoxy-d3)phenyl)-2-(2-methyl-2H-indazol-5-yl)-3-oxo-3,5-dihydro-2H-pyrrolo[3,2-c]pyridazine-7-carbonitrile] | < 100 nM | < 100 nM | < 100 nM | > 1000 nM
2 | CNC(=O)c1cn(CC2CC2)c2c(-c3ccc(C4CC4)nc3)c(=O)n(-c3ccc4nn(C)cc4c3)nc12 [Example 162, 5-(cyclopropylmethyl)-4-(6-cyclopropylpyridin-3-yl)-N-methyl-2-(2-methyl-2H-indazol-5-yl)-3-oxo-2H,3H,5H-pyrrolopyridazine-7-carboxamide] | < 100 nM | < 100 nM | < 100 nM | 100 to 1000 nM
3 | Cn1cc2cc(-n3nc4c(C(=O)O)cn(CC5CC5)c4c(-c4ccc(C5CC5)nc4)c3=O)ccc2n1 [Example 163, 5-(cyclopropylmethyl)-4-(6-cyclopropylpyridin-3-yl)-2-(2-methyl-2H-indazol-5-yl)-3-oxo-3,5-dihydro-2H-pyrrolo[3,2-c]pyridazine-7-carboxylic acid] | < 1000 nM | 100 to 1000 nM | > 1000 nM | > 1000 nM
4 | Cn1cc2cc(-n3nc4c(C(N)=O)cn(CC5CC5)c4c(-c4ccc(C5CC5)nc4)c3=O)ccc2n1 [Example 165, 5-(cyclopropylmethyl)-4-(6-cyclopropylpyridin-3-yl)-2-(2-methyl-2H-indazol-5-yl)-3-oxo-3,5-dihydro-2H-pyrrolo[3,2-c]pyridazine-7-carboxamide] | < 100 nM | < 100 nM | < 100 nM | 100 to 1000 nM
5 | Cn1cc2cc(-n3nc4c(C(N)=O)cn(CC5CC5)c4c(-c4ccc(C5CC5)cc4)c3=O)ccc2n1 [Example 166, 5-(cyclopropylmethyl)-4-(4-cyclopropylphenyl)-2-(2-methyl-2H-indazol-5-yl)-3-oxo-3,5-dihydro-2H-pyrrolo[3,2-c]pyridazine-7-carboxamide] | < 100 nM | < 100 nM | < 100 nM | > 1000 nM
6 | CNC(=O)c1cn(CC2CC2)c2c(-c3ccc(C4CC4)cc3)c(=O)n(-c3ccc4nn(C)cc4c3)nc12 [Example 167, 5-(cyclopropylmethyl)-4-(4-cyclopropylphenyl)-N-methyl-2-(2-methyl-2H-indazol-5-yl)-3-oxo-3,5-dihydro-2H-pyrrolo[3,2-c]pyridazine-7-carboxamide] | < 100 nM | < 100 nM | < 100 nM | < 100 nM
7 | Cn1cc2cc(-n3nc4c(C(N)=O)cn(CC5CC5)c4c(-c4ccc(OC(F)F)cc4)c3=O)ccc2n1 [Example 168, 5-(cyclopropylmethyl)-4-(4-(difluoromethoxy)phenyl)-2-(2-methyl-2H-indazol-5-yl)-3-oxo-3,5-dihydro-2H-pyrrolo[3,2-c]pyridazine-7-carboxamide] | < 100 nM | < 100 nM | < 100 nM | > 1000 nM
8 | CNC(=O)c1cn(CC2CC2)c2c(-c3ccc(OC(F)F)cc3)c(=O)n(-c3ccc4nn(C)cc4c3)nc12 [Example 169, 5-(cyclopropylmethyl)-4-(4-(difluoromethoxy)phenyl)-N-methyl-2-(2-methyl-2H-indazol-5-yl)-3-oxo-3,5-dihydro-2H-pyrrolo[3,2-c]pyridazine-7-carboxamide] | < 100 nM | < 100 nM | < 100 nM | 100 to 1000 nM
9 | Cn1cc2cc(-n3nc4c(C(N)=O)cn(CC5CC5)c4c(-c4ccc(Cl)cc4)c3=O)ccc2n1 [Example 170, 4-(4-chlorophenyl)-5-(cyclopropylmethyl)-2-(2-methyl-2H-indazol-5-yl)-3-oxo-3,5-dihydro-2H-pyrrolo[3,2-c]pyridazine-7-carboxamide] | < 100 nM | < 100 nM | < 100 nM | > 1000 nM
10 | CNC(=O)c1cn(CC2CC2)c2c(-c3ccc(Cl)cc3)c(=O)n(-c3ccc4nn(C)cc4c3)nc12 [Example 171, 4-(4-chlorophenyl)-5-(cyclopropylmethyl)-N-methyl-2-(2-methyl-2H-indazol-5-yl)-3-oxo-3,5-dihydro-2H-pyrrolo[3,2-c]pyridazine-7-carboxamide] | < 100 nM | < 100 nM | < 100 nM | < 100 nM
11 | [2H]C([2H])([2H])n1cc2cc(-n3nc4c(C(=O)NC)cn(CC5CC5)c4c(-c4ccc(C5CC5)nc4)c3=O)ccc2n1 [Example 172, 5-(cyclopropylmethyl)-4-(6-cyclopropylpyridin-3-yl)-N-methyl-2-(2-(methyl-d3)-2H-indazol-5-yl)-3-oxo-3,5-dihydro-2H-pyrrolo[3,2-c]pyridazine-7-carboxamide] | < 100 nM | < 100 nM | < 100 nM | > 1000 nM
12 | [2H]C([2H])([2H])Oc1ccc(-c2c(=O)n(-c3ccc4nn(C)cc4c3)nc3c(C(N)=O)cn(CC4CC4)c23)cc1 [Example 173, 5-(cyclopropylmethyl)-4-(4-(methoxy-d3)phenyl)-2-(2-methyl-2H-indazol-5-yl)-3-oxo-3,5-dihydro-2H-pyrrolo[3,2-c]pyridazine-7-carboxamide] | < 100 nM | < 100 nM | < 100 nM | > 1000 nM
13 | [2H]C([2H])([2H])Oc1ccc(-c2c(=O)n(-c3ccc4nn(C)cc4c3)nc3c(C(=O)NC)cn(CC4CC4)c23)cc1 [Example 174, 5-(cyclopropylmethyl)-4-(4-(methoxy-d3)phenyl)-N-methyl-2-(2-methyl-2H-indazol-5-yl)-3-oxo-3,5-dihydro-2H-pyrrolo[3,2-c]pyridazine-7-carboxamide] | < 100 nM | < 100 nM | < 100 nM | 100 to 1000 nM
14 | Cc1ccc(-c2c(=O)n(-c3ccc4nn(C)cc4c3)nc3c(C(N)=O)cn(CC4CC4)c23)cn1 [Example 175, 5-(cyclopropylmethyl)-2-(2-methyl-2H-indazol-5-yl)-4-(6-methylpyridin-3-yl)-3-oxo-3,5-dihydro-2H-pyrrolo[3,2-c]pyridazine-7-carboxamide] | < 100 nM | 100 to 1000 nM | 100 to 1000 nM | > 1000 nM
15 | CNC(=O)c1cn(CC2CC2)c2c(-c3ccc(OC)cc3)c(=O)n(-c3ccc4nn(C)cc4c3)nc12 [Example 176, 5-(cyclopropylmethyl)-4-(4-methoxyphenyl)-N-methyl-2-(2-methyl-2H-indazol-5-yl)-3-oxo-3,5-dihydro-2H-pyrrolo[3,2-c]pyridazine-7-carboxamide] | < 100 nM | < 100 nM | < 100 nM | 100 to 1000 nM
16 | CNC(=O)c1cn(CC2CC2)c2c(-c3ccc(C)nc3)c(=O)n(-c3ccc4nn(C)cc4c3)nc12 [Example 177, 5-(cyclopropylmethyl)-N-methyl-2-(2-methyl-2H-indazol-5-yl)-4-(6-methylpyridin-3-yl)-3-oxo-3,5-dihydro-2H-pyrrolo[3,2-c]pyridazine-7-carboxamide] | < 100 nM | 100 to 1000 nM | < 100 nM | > 1000 nM
17 | CN(C)S(=O)(=O)c1cn(CC2CC2)c2c(-c3ccc(C4CC4)nc3)c(=O)n(-c3ccc4nn(C)cc4c3)nc12 [Example 178, 5-(cyclopropylmethyl)-4-(6-cyclopropylpyridin-3-yl)-N,N-dimethyl-2-(2-methyl-2H-indazol-5-yl)-3-oxo-3,5-dihydro-2H-pyrrolo[3,2-c]pyridazine-7-sulfonamide] | 100 to 1000 nM | > 1000 nM | > 1000 nM | > 1000 nM
18 | Cn1cc2cc(-n3nc4c(S(N)(=O)=O)cn(CC5CC5)c4c(-c4ccc(C5CC5)cc4)c3=O)ccc2n1 [Example 180, 5-(cyclopropylmethyl)-4-(4-cyclopropylphenyl)-2-(2-methyl-2H-indazol-5-yl)-3-oxo-3,5-dihydro-2H-pyrrolo[3,2-c]pyridazine-7-sulfonamide] | < 100 nM | < 100 nM | < 100 nM | > 1000 nM
19 | Cn1cc2cc(-n3nc4c(S(N)(=O)=O)cn(CC5CC5)c4c(-c4ccc(OC(F)F)cc4)c3=O)ccc2n1 [Example 184, 5-(cyclopropylmethyl)-4-(4-(difluoromethoxy)phenyl)-2-(2-methyl-2H-indazol-5-yl)-3-oxo-3,5-dihydro-2H-pyrrolo[3,2-c]pyridazine-7-sulfonamide] | < 100 nM | 100 to 1000 nM | < 100 nM | > 1000 nM
20 | Cn1cc2cc(-n3nc4c(S(N)(=O)=O)cn(CC5CC5)c4c(-c4ccc(C5CC5)nc4)c3=O)ccc2n1 [Example 185, 5-(cyclopropylmethyl)-4-(6-cyclopropylpyridin-3-yl)-2-(2-methyl-2H-indazol-5-yl)-3-oxo-3,5-dihydro-2H-pyrrolo[3,2-c]pyridazine-7-sulfonamide] | < 100 nM | 100 to 1000 nM | 100 to 1000 nM | > 1000 nM
